Experimental data as given in ChEMBL document CHEMBL1255204, “Identification of the first non-peptidic small molecule inhibitor of the c-Abl/14-3-3 protein-protein interactions able to drive sensitive and Imatinib-resistant leukemia cells to apoptosis” (2010).
Calls of active or inactive are those of the source. The calls are words filed in the database; no cut-off is given here.

Columns and labels:
[1] = biological target: Bcr/Abl fusion protein (Homo sapiens) (UniProt P00519+P11274); test: Binding affinity to Bcr-Abl expressed in mouse BA/F3 cells at 5 uM; format: cell-based; details: BaF3
Chain of Bcr/Abl fusion protein (Homo sapiens) (P00519 whole entry, looked up, the tested form may be a part): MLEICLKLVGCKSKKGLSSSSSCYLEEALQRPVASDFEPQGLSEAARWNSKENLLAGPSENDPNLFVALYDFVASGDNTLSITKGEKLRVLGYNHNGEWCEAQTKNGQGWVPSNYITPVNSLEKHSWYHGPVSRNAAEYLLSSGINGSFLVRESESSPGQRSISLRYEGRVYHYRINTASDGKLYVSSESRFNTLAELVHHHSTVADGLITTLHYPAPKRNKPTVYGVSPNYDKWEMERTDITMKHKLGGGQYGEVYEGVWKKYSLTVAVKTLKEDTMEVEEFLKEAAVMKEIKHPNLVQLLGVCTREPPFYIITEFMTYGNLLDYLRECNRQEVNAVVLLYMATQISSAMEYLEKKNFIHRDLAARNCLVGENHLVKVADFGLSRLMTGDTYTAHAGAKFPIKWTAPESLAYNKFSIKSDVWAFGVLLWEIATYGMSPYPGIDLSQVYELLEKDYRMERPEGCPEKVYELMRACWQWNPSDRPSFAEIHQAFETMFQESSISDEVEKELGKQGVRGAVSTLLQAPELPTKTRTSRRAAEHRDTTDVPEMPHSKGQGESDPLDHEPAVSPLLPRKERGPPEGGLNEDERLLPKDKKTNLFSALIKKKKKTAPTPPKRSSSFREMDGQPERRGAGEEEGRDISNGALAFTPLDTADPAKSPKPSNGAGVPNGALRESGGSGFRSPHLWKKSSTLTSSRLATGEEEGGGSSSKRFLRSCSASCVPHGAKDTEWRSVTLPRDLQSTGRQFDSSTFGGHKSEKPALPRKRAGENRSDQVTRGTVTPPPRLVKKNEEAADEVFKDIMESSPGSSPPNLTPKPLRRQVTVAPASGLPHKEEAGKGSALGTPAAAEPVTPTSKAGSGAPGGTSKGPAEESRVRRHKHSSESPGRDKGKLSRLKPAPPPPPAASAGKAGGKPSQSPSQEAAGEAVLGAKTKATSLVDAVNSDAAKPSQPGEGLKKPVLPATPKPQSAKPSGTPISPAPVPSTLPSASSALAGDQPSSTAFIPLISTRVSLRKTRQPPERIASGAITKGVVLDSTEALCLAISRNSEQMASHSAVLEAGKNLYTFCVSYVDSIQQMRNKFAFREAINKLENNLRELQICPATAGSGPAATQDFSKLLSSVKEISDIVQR
Chain of Bcr/Abl fusion protein (Homo sapiens) (P11274 whole entry, looked up, the tested form may be a part): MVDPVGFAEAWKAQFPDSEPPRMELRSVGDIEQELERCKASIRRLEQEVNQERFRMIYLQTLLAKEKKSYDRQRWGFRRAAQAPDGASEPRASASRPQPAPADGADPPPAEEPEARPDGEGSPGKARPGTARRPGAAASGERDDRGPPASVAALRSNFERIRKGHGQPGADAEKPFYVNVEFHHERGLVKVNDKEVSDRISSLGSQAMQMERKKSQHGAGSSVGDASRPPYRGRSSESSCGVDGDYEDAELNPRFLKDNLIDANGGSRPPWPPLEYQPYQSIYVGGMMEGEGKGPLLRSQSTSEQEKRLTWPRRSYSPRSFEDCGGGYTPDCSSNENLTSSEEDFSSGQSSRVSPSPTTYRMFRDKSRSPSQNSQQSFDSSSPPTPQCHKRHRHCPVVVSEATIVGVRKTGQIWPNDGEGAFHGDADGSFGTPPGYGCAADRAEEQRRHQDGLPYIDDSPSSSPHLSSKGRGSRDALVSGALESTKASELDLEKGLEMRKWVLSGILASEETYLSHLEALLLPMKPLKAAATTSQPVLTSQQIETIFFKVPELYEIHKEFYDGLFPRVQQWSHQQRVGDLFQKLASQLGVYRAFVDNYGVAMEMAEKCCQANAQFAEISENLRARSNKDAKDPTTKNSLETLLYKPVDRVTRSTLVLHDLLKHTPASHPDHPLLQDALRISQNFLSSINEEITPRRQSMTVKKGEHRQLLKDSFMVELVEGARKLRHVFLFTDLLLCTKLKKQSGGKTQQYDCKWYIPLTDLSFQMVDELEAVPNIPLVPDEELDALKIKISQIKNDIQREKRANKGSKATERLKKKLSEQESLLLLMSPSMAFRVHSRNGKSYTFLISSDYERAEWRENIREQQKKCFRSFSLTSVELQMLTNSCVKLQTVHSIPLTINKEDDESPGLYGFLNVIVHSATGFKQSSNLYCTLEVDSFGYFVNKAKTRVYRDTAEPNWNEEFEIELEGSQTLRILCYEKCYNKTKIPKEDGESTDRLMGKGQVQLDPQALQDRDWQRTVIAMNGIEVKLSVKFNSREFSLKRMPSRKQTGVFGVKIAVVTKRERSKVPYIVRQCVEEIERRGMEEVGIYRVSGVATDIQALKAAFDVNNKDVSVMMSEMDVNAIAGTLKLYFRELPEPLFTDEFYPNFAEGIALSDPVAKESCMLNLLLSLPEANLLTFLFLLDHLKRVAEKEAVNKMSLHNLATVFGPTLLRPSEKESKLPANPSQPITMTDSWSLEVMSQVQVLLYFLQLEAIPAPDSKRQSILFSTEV

[2] = biological target: Tyrosine-protein kinase ABL1 (Mus musculus) (UniProt P00520); test: Induction of translocation of cAbl in to mitochondria of mouse BA/F3 cells assessed as caspase 8 cleavage; details: BaF3
Chain of Tyrosine-protein kinase ABL1 (Mus musculus) (P00520 whole entry): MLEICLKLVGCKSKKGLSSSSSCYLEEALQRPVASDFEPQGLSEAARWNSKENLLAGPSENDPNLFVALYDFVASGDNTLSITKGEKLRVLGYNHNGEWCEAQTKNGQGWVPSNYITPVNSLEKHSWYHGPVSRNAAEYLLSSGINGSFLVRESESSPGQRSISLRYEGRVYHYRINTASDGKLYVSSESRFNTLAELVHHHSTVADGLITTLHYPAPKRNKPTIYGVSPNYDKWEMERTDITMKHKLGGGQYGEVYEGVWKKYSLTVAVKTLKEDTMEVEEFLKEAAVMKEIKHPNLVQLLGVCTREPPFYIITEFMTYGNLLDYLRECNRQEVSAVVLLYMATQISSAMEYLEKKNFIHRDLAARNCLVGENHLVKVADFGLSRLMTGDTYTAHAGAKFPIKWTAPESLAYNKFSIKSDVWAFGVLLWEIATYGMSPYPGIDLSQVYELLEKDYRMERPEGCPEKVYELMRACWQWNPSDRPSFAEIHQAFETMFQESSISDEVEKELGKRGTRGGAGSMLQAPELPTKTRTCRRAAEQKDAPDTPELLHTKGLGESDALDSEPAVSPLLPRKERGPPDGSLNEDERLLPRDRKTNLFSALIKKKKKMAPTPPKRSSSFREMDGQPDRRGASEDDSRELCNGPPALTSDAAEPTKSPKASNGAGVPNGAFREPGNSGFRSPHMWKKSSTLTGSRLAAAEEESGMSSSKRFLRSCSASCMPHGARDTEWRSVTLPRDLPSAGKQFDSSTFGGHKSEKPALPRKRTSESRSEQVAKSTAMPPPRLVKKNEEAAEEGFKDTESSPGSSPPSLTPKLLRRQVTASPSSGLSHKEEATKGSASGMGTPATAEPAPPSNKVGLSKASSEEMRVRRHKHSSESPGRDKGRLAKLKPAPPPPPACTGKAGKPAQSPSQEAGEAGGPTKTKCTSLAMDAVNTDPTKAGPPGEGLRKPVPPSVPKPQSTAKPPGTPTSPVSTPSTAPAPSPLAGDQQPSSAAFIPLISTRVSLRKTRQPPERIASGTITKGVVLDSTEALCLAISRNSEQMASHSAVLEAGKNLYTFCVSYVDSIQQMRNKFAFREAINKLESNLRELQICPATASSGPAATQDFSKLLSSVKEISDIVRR

[3] = biological target: Tyrosine-protein kinase ABL1 (Mus musculus) (UniProt P00520); test: Induction of translocation of cAbl in to mitochondria of mouse BA/F3 cells; details: BaF3
[4] = biological target: Tyrosine-protein kinase ABL1 (Mus musculus) (UniProt P00520); test: Induction of nuclear translocation of cAbl of mouse BA/F3 cells; format: cell-based; details: BaF3
[5] = Cytotoxicity against mouse BA/F3 cells overexpressing BCR-Abl T315I mutant; format: functional; details: BaF3, read-out: LD50 (the source's name)
[6] = biological target: Tyrosine-protein kinase ABL1 (Mus musculus) (UniProt P00520); test: Induction of translocation of cAbl in to mitochondria of mouse BA/F3 cells assessed as caspase9 cleavage; details: BaF3
[7] = Cytotoxicity against mouse BA/F3 cells; format: functional; details: BaF3, read-out: LD50 (the source's name)

SMILES: Cc1c(NC(=O)c2c(C(=O)O)cccc2C(=O)O)c(=O)n(-c2ccccc2)n1C
- Activity [1]: Active
- Activity [2]: Active
- Activity [3]: Active
- Activity [4]: Active
- CC50 [5]: 1470 nM
- Activity [6]: Active
- CC50 [7]: 1040 nM
